Data set [1] has as its target Cytochrome P450 3A4 (Homo sapiens, UniProt P08684). As to the kind of experiment: Activity of human recombinant CYP3A4 assessed as enzyme-mediated 2-hydroxyethyl (1R,3aR,4aR,6R,8aR,9S,9aS)-9-((E)-2-(5-(3-fluorophenyl)pyridin-2-yl)vinyl)-1-methyl-3-oxododecahydronaphtho[2,3-c]furan-6-ylcarbamate formation at 25 uM after 120 mins by LC-MS/MS analysis in presence of NADPH. It counts as ADME. As to conditions: 2 h.

The target in data set [2] is T1, Cytochrome P450 2A6 (Homo sapiens, UniProt P11509). Nature of the data set: Activity of human recombinant CYP2A6 assessed as enzyme-mediated 2-hydroxyethyl (1R,3aR,4aR,6R,8aR,9S,9aS)-9-((E)-2-(5-(3-fluorophenyl)pyridin-2-yl)vinyl)-1-methyl-3-oxododecahydronaphtho[2,3-c]furan-6-ylcarbamate formation at 25 uM after 120 mins by LC-MS/MS analysis in presence of NADPH. To be noted: 2 h. In kind it is ADME.
T1 sequence (P11509 whole entry): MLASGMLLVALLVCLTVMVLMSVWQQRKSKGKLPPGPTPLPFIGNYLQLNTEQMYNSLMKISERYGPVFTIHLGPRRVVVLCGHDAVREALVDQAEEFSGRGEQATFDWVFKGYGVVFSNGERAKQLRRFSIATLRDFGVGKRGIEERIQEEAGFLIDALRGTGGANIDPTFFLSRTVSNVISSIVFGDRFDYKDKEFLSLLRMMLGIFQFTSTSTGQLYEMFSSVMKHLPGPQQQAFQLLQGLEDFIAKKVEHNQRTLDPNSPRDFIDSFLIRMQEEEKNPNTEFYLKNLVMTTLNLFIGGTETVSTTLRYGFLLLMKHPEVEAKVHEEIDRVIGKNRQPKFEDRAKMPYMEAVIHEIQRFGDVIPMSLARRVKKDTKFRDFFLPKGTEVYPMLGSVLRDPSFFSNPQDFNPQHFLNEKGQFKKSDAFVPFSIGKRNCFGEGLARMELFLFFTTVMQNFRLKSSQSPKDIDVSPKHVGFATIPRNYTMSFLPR

Data set [3] addresses Cytochrome P450 4A11 (Homo sapiens, UniProt Q02928). As to the kind of experiment: Activity of human recombinant CYP4A11 assessed as enzyme-mediated 2-hydroxyethyl (1R,3aR,4aR,6R,8aR,9S,9aS)-9-((E)-2-(5-(3-fluorophenyl)pyridin-2-yl)vinyl)-1-methyl-3-oxododecahydronaphtho[2,3-c]furan-6-ylcarbamate formation at 25 uM after 120 mins by LC-MS/MS analysis in presence of NADPH. In kind it is ADME. To be noted: 2 h.

The target of data set [4] is Cytochrome P450 4F2 (Homo sapiens, UniProt P78329). Nature of the data set: Activity of human recombinant CYP4F2 assessed as enzyme-mediated 2-hydroxyethyl (1R,3aR,4aR,6R,8aR,9S,9aS)-9-((E)-2-(5-(3-fluorophenyl)pyridin-2-yl)vinyl)-1-methyl-3-oxododecahydronaphtho[2,3-c]furan-6-ylcarbamate formation at 25 uM after 120 mins by LC-MS/MS analysis in presence of NADPH. It counts as ADME. As to conditions: 2 h.
Sequence of Cytochrome P450 4F2 (P78329 whole entry): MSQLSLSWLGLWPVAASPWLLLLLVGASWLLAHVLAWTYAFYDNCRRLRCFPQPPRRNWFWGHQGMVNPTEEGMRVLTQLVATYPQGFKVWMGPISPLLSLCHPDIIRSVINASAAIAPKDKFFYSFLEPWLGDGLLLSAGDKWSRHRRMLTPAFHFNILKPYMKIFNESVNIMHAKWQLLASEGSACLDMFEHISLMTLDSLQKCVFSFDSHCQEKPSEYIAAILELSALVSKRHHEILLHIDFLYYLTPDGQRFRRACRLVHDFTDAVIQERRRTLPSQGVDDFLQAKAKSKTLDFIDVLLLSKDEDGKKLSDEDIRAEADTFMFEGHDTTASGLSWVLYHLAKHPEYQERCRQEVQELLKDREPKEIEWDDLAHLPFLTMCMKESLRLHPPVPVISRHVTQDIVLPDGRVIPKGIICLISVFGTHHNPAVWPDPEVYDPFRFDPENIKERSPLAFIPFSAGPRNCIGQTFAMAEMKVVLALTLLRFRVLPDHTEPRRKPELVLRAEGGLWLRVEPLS

For data set [5], the target named is T2, Cytochrome P450 4F3 (Homo sapiens, UniProt Q08477).
T2 sequence (Q08477 whole entry): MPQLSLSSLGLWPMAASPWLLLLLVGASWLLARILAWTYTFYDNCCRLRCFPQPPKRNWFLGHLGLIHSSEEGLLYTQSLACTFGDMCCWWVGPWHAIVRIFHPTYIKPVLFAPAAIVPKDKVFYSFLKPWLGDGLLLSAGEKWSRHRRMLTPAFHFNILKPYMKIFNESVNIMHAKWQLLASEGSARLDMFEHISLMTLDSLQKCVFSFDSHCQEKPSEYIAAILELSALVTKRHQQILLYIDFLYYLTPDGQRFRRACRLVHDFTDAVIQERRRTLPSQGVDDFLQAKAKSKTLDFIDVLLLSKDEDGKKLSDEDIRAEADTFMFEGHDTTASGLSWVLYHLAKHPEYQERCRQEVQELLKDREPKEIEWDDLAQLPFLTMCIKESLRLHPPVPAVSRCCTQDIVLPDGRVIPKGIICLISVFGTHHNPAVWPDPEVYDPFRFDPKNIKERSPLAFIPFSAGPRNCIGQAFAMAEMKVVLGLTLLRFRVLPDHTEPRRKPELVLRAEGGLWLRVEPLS
Nature of the data set: Activity of human recombinant CYP4F3B assessed as enzyme-mediated 2-hydroxyethyl (1R,3aR,4aR,6R,8aR,9S,9aS)-9-((E)-2-(5-(3-fluorophenyl)pyridin-2-yl)vinyl)-1-methyl-3-oxododecahydronaphtho[2,3-c]furan-6-ylcarbamate formation at 25 uM after 120 mins by LC-MS/MS analysis in presence of NADPH. In kind it is ADME. To be noted: 2 h.

Data set [6] concerns the target T3, Cytochrome P450 1A1 (Homo sapiens, UniProt P04798).
T3 sequence (P04798 whole entry): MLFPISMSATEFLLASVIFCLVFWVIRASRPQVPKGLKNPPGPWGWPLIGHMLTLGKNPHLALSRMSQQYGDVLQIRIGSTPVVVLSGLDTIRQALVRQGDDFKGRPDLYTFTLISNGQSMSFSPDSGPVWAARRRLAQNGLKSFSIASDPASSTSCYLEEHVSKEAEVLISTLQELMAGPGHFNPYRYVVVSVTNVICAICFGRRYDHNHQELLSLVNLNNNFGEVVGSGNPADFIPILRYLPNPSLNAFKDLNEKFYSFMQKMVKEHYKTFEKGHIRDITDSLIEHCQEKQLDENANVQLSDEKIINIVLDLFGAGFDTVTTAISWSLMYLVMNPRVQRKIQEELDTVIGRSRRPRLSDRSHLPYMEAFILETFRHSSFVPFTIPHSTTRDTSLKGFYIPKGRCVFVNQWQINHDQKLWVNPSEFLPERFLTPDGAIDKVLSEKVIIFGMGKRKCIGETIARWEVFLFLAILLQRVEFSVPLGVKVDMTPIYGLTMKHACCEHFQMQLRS
As to the kind of experiment: Activity of human recombinant CYP1A1 assessed as enzyme-mediated (3R,3aS,4S,4aR,7R,8aR,9aR)-7-amino-4-((E)-2-(5-(3-fluorophenyl)pyridin-2-yl)vinyl)-3-methyldecahydronaphtho[2,3-c]furan-1(3H)-one formation at 25 uM after 120 mins by LC-MS/MS analysis in presence of NADPH. In kind it is ADME. To be noted: 2 h.

The test system of data set [7] is Liver microsome. As to the kind of experiment: Drug metabolism in human liver microsomes assessed as (3R,3aS,4S,4aR,7R,8aR,9aR)-7-amino-4-((E)-2-(5-(3-fluorophenyl)pyridin-2-yl)vinyl)-3-methyldecahydronaphtho[2,3-c]furan-1(3H)-one formation per nmol of enzyme at 25 uM after 120 mins by LC-MS/MS analysis. In kind it is ADME. As to conditions: 2 h.
The nature of data set [8]: Drug metabolism in human liver S9 fraction assessed as (3R,3aS,4S,4aR,7R,8aR,9aR)-7-amino-4-((E)-2-(5-(3-fluorophenyl)pyridin-2-yl)vinyl)-3-methyldecahydronaphtho[2,3-c]furan-1(3H)-one formation at 10 uM after 120 mins by LC-MS/MS analysis. In kind it is ADME, subcellular. As to conditions: s9, 2 h.
Data set [9] addresses T1, Cytochrome P450 2A6. As to the kind of experiment: Activity of human recombinant CYP2A6 assessed as enzyme-mediated drug metabolism treated with 25 uM vorapaxar after 120 mins by LC-MS/MS analysis in presence of NADPH. In kind it is ADME. As to conditions: 2 h.
Data set [10] addresses Cytochrome P450 2C8 (Homo sapiens, UniProt P10632). As to the kind of experiment: Activity of human recombinant CYP2C8 assessed as enzyme-mediated drug metabolism treated with 25 uM vorapaxar after 120 mins by LC-MS/MS analysis in presence of NADPH. It counts as ADME. To be noted: 2 h.
In data set [11] the target is Cytochrome P450 2C9 (Homo sapiens, UniProt P11712). Nature of the data set: Activity of human recombinant CYP2C9 assessed as enzyme-mediated drug metabolism treated with 25 uM vorapaxar after 120 mins by LC-MS/MS analysis in presence of NADPH. It counts as ADME. To be noted: 2 h.
Sequence of Cytochrome P450 2C9 (P11712 whole entry): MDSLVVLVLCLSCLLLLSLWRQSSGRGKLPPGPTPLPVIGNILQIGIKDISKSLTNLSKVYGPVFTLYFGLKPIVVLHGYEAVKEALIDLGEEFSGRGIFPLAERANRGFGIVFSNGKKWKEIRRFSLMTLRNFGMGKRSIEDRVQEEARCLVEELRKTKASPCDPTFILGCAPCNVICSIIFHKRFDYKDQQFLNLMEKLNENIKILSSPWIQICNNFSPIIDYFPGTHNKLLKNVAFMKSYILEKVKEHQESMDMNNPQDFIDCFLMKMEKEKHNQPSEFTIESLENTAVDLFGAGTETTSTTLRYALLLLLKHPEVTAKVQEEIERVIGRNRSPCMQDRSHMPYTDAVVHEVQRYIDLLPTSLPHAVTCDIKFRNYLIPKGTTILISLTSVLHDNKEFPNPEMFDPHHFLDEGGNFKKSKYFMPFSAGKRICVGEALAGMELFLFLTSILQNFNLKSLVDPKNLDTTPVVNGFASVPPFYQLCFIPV
For data set [12], the system named is Liver microsome. Nature of the data set: Drug metabolism in human liver microsomes assessed as 2-hydroxyethyl (1R,3aR,4aR,6R,8aR,9S,9aS)-9-((E)-2-(5-(3-fluorophenyl)pyridin-2-yl)vinyl)-1-methyl-3-oxododecahydronaphtho[2,3-c]furan-6-ylcarbamate formation at 25 uM after 120 mins by LC-MS/MS analysis in presence of NADPH. As to conditions: 2 h. It counts as ADME. (In general: Liver microsomes are a subcellular fraction often used to study metabolism.)

In data set [13] the test system is Liver microsome. Nature of the data set: Drug metabolism in human liver microsomes overexpressing CYP3A4 assessed as (3R,3aS,4S,4aR,7R,8aR,9aR)-7-amino-4-((E)-2-(5-(3-fluorophenyl)pyridin-2-yl)vinyl)-3-methyldecahydronaphtho[2,3-c]furan-1(3H)-one formation at 25 uM after 120 mins by LC-MS/MS analysis in presence of ticlopidine. It counts as ADME. As to conditions: 2 h.

Sequence of Cytochrome P450 3A4 (P08684 whole entry): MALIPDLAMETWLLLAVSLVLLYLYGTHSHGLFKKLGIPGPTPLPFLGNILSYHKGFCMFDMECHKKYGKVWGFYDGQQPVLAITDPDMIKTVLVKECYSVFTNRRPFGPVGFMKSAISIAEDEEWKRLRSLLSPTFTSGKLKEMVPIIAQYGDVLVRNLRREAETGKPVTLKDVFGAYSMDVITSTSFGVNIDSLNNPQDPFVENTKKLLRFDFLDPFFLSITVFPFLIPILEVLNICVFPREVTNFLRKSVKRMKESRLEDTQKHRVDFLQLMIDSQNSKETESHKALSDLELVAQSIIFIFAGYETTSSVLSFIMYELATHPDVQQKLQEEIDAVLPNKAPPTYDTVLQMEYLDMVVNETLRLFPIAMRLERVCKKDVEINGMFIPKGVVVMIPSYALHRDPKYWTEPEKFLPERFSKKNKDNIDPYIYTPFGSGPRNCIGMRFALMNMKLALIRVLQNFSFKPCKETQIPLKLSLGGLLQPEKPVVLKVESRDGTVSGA
Sequence of Cytochrome P450 2C8 (P10632 whole entry): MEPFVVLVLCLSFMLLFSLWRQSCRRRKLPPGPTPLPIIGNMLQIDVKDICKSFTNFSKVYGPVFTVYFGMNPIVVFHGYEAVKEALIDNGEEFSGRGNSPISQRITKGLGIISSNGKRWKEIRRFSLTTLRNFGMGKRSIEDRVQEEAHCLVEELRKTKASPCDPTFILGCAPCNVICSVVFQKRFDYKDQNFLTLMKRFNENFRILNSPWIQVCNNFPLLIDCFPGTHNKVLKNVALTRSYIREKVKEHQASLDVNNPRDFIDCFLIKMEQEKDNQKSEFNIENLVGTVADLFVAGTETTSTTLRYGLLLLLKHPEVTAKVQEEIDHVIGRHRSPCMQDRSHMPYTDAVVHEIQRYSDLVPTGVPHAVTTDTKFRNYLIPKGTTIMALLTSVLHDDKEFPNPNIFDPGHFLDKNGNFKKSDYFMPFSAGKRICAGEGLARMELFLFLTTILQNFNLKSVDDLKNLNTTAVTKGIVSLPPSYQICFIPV
Sequence of Cytochrome P450 4A11 (Q02928 whole entry): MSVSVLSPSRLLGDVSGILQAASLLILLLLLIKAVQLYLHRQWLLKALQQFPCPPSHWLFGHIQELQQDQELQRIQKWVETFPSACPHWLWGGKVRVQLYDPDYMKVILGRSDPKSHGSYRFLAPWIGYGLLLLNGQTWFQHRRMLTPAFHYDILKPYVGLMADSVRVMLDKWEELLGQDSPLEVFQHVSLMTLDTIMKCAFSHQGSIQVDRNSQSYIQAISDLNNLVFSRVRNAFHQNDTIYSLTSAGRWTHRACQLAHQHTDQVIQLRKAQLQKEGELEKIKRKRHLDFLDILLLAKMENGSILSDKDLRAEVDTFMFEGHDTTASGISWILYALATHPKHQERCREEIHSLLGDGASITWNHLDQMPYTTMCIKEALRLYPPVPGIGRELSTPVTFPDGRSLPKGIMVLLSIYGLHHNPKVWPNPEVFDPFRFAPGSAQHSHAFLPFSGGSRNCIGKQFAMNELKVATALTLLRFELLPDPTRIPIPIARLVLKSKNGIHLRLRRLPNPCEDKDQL

Regarding `CCOC(=O)N[C@@H]1CC[C@@H]2[C@@H](C1)C[C@H]1C(=O)O[C@H](C)[C@H]1[C@H]2/C=[14CH]/c1ccc(-c2cccc(F)c2)cn1`, the Drug metabolism result in [1], in data set [2], in data set [3], in [4], in data set [5] and in data set [6] was “metabolite_detected” throughout. Also, the Drug metabolism result in data set [8] is reported as “metabolite_not_detected”. Besides, the maximum rate (Vmax) in data set [7] came to 30 pmol/min.

Regarding `C[C@H]1OC(=O)[C@@H]2C[C@@H]3C[C@H](NC(=O)OCCO)CC[C@H]3[C@H](/C=C/c3ccc(-c4cccc(F)c4)cn3)[C@H]12`, the Drug metabolism result in data set [9], in data set [10] and in data set [11] was “metabolite_detected” throughout.

Regarding `CCOC(=O)N[C@@H]1CC[C@@H]2[C@@H](C1)C[C@H]1C(=O)O[C@H](C)[C@H]1[C@H]2/C=C/c1ccc(-c2cccc(F)c2)cn1` [VORAPAXAR], the Vmax in data set [12] is reported as 0.4 pmol/min. In addition, in data set [13], the Drug metabolism result is given as “metabolite_not_detected”.

The Vmax is the top rate of the reaction or transport when substrate is in excess.

These data come from ChEMBL document CHEMBL3526033, “Identification of human liver cytochrome P450 enzymes involved in the metabolism of SCH 530348 (Vorapaxar), a potent oral thrombin protease-activated receptor 1 antagonist” (Drug Metab Dispos, 2011).
